Measured values: article PMC9706920, “Aryloxypropanolamine targets amyloid aggregates and reverses Alzheimer-like phenotypes in Alzheimer mouse models” (Alzheimer's Research & Therapy, 2022)

Legend:
[1] = target: T1, Aβ-Aβ interactions (Aβ(1–42) fragments) (Homo sapiens, UniProt P05067); assay: Mapping assay of Aβ(1–42) with peptide fragments; type: biochemical; details: YIAD002 500 μM, 24 h, Flamma 552-labeled Aβ(1–42) 10 μM, compared to full-length Aβ(1–42) control
T1 construct: we added monomeric Aβ(1–42) (10 μM) labeled with fluorescent dye Flamma 552 to each well
T1 sequence (P05067 672-713): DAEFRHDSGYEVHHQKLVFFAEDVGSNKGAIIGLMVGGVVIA
Description: Aβ fragments made up of six overlapping amino acid residues and a cysteine residue at the C-terminal were acquired by Fmoc solid phase peptide synthesis as previously described. Full length Aβ(1–42) with an additional cysteine residue at the C-terminal was used for comparison. The peptides were dissolved in DMSO ([…]) and diluted in binding buffer (0.1 M sodium phosphate, 0.15 M sodium chloride, 10 mM EDTA; pH 7.2) to prepare 50 μg/mL peptide solutions. To immobilize the Aβ fragments and monomers to maleimide-activated microplates, 100 μL of peptide solutions (50 μg/mL) was added and incubated at RT for 2 h while shaking. Cysteine solution (10 μg/mL with binding buffer) was added to cap unreacted maleimide groups. […] To define the fluorescence baseline for each well, fluorescence intensity was measured at 555 (excitation) and 580 (emission). YIAD002 (500 μM in binding buffer, 7.5% DMSO) was added to each well and incubated at RT for 24 h while shaking. Fluorescence intensity was remeasured at 555 (excitation) and 580 (emission) and baseline fluorescence was subtracted to quantify the change in fluorescence intensity caused by YIAD002. The plate was washed with 200 μL of wash buffer (0.1 M sodium phosphate, 0.15 M sodium chloride, 0.05% Tween®-20 Detergent; pH 7.2) per well three times in between steps.

[2] = BBB-PAMPA; type: in vitro ADME; details: 50 μM
Description: Commercially available Double-Sink PAMPA (Pion® Double sink) assay was performed using a two compartment 96-well microtiter plate and protocols specified by the manufacturer. […] Stock solutions of controls and YIAD002 were dissolved in DMSO (10 mM) and subsequently diluted to 200-fold in pION buffer (pH 7.4) to 50 μM. The donor plate of the PAMPA sandwich was loaded with 50 μM solutions, and after wetting the artificial membrane with BBB lipid solution, the acceptor plate was loaded with acceptor sink buffer. Then, the acceptor plate was placed on the donor plate and incubated at 25°C for 4 h. Compound concentration in the reference, donor, and acceptor plates were measured on a UV plate.

[3] = Plasma stability, human; type: in vitro ADME; details: 10 μM, 37°C, vs 0 min
Description: To assess the plasma stability of YIAD002, YIAD002 stock was dissolved at a concentration of […] in DMSO. 5 μL of YIAD002 stock was added to 195 μL of human plasma or 195 μL of rat plasma and incubated at 37°C for the following time points: 0, 30, and 120 min. At the end of incubation, acetonitrile with chlorpropamide was added to stop reactions. The solutions were centrifuged at 14,000 rpm at 4°C for 5 min and the supernatant was analyzed with LC-MS/MS. High performance liquid chromatography was carried out on a Kinetex C18 column (2.1 × 100 mm, 2.6 μm particle size, Phenomenex, USA). The composition of the mobile phase was 0.1% formic acid in water (A) and 0.1% formic acid in acetonitrile (B).

[4] = target: T2, CYP 2C9 (Homo sapiens, UniProt P11712); assay: CYP450 inhibition assay, 2C9; type: in vitro ADME; details: YIAD002 10 μM, human liver microsomes; weak or no inhibition; read-out: CYP 2C9 inhibition, IC50 (inhibition criteria)
T2 construct: contained human liver microsomes (0.25 mg/ml); from tissue; host or cells: human liver microsomes
T2 sequence (P11712 whole entry): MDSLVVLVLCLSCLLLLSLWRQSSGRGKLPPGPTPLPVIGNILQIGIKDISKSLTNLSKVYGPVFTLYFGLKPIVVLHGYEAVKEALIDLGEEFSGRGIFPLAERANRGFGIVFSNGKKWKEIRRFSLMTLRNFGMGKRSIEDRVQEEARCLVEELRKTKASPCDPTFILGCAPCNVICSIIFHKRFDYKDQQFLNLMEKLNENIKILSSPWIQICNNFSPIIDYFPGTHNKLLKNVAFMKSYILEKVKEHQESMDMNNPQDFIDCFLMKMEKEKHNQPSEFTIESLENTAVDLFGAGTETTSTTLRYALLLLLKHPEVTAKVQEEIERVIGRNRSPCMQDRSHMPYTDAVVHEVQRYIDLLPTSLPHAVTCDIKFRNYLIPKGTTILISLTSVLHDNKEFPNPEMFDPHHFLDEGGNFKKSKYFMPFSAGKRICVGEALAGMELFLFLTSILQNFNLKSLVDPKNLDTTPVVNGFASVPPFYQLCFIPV
Description: Incubation mixtures for Cytochrome P450s (CYPs) inhibition assay contained human liver microsomes (0.25 mg/ml), 0.1 M phosphate buffer (pH 7.4), 10 μM of YIAD002, and an enzyme substrate cocktail (phenacetin 50 μM, diclofenac 10 μM, S-mephenytoin 100 μM, dextromethorphan 5 μM, and midazolam 2.5 μM). The mixture was pre-incubated at 37°C for 5 min and 1 mM NAPDH was added to initiate reactions. After 15 min of incubation, acetonitrile with terfenadine was added to stop reactions and microsomal solutions were centrifuged at 14,000 rpm at 4°C for 5 min. For LC-MS/MS analysis, supernatants were injected on a Kinetex C18 column (2.1 × 100 mm, 2.6 μm particle size, Phenomenex, USA). The composition of the mobile phase was 0.1% formic acid in water (A) and 0.1% formic acid in acetonitrile (B).

[5] = system: APP/PS1 mice; assay: 6E10 immunohistochemical staining of amyloid plaques in APP/PS1 mice; type: in vivo, mouse; details: YIAD002-treated APP/PS1 mice vs vehicle
Description: To test whether YIAD002 could reduce amyloid plaques in another AD mouse model, APP/PS1 transgenic mice (n = 24) and wildtype mice (n = 5) were assessed at the age of 7.5 months. YIAD002 was dissolved in PBS (0.5% methylcellulose) at two different concentrations (10 and 30 mg/kg/day) and administrated daily to APP/PS1 mice (n = 8 for each group) via oral gavage for 8 weeks. As a control, vehicle solutions were orally administrated to littermate APP/PS1 mice (n = 8) and wildtype mice (n = 5).
Formalin-fixed APP/PS1 mice brains were infiltrated with paraffin using a tissue processor (LEICA ASP300S, Germany). Blocks of tissues were produced with a tissue embedding center and sectioned into thin slices (4 μm), which were mounted onto glass slides. To prepare for 6E10 staining, slides were deparaffinized, rehydrated, and blocked with 0.03% H2O2 to remove endogenous peroxidase. For antigen retrieval, slides were boiled in Tris/EDTA solution (pH 9.0) using a pressure cooker. Unspecific binding was blocked through incubation in 4% BSA at RT for 30 min. Slides were immunolabeled with anti-6E10 antibody (1:2000, Novus Biologicals NBP2-62566) at RT for 1 h and HRP-labeled secondary antibody (Dako K4003) for 30 min and subsequently stained with DAB (3,3′-Diaminobenzidine) and counterstained with Mayer’s hematoxylin. Stained slides were scanned using ZEISS Axio scan.Z1 microscope. Amyloid plaques were quantified using Image-J software (NIH).

SMILES: CCC(C)(C)c1ccc(OCC(O)CN2CCCC2)c(C(C)(C)CC)c1.Cl (centres unmarked) [YIAD002, 1-(3-(2,4-Di-tert-pentylphenoxy)-2-hydroxypropyl)pyrrolidin-1-ium chloride]
- Dissociation of Aβ-Aβ interactions at immobilised Aβ fragments [1]: markedly dissociated Aβ-Aβ interactions at residues Aβ(16–21), KLVFFA, and Aβ(32–37), IGLMVG
- BBB permeability class ([2]; classification ranges ref 25): high BBB permeability
- Papp at 4 h, 50 μM ([2]; PAMPA, pH 7.4, 25°C, 4 h, read-out: Effective permeability coefficient Pe): 36.8 ×10⁻⁶ cm/s
- Compound remaining in human plasma ([3]; 30 min): 96.3%
- Compound remaining in human plasma ([3]; 120 min): 92.6%
- IC50 [4]: > 10 µM
- Number of plaques, cortex [5]: significantly reduced
- Plaque size, hippocampus [5]: significantly reduced
- Size of plaques, cortex [5]: significantly reduced
- Area of 6E10-stained plaques, whole brain ([5]; dose not given): reduced
- Number of 6E10-stained plaques, whole brain ([5]; dose not given): reduced
